In ChEMBL document CHEMBL3627608, “Crystal structures of human RIP2 kinase catalytic domain complexed with ATP-competitive inhibitors: Foundations for understanding inhibitor selectivity” (Bioorg Med Chem, 2015):

Columns and labels:
[1] = target: NT-3 growth factor receptor (Homo sapiens) (UniProt Q16288); assay: Inhibition of TRKC (unknown origin) at 10 uM after 120 mins P33 radiolabeled kinase activity assay
[2] = target: PAS domain-containing serine/threonine-protein kinase (Homo sapiens) (UniProt Q96RG2); assay: Inhibition of PASK (unknown origin) at 10 uM after 120 mins P33 radiolabeled kinase activity assay
Sequence of PAS domain-containing serine/threonine-protein kinase (Homo sapiens) (Q96RG2 whole entry, the tested form may be a part): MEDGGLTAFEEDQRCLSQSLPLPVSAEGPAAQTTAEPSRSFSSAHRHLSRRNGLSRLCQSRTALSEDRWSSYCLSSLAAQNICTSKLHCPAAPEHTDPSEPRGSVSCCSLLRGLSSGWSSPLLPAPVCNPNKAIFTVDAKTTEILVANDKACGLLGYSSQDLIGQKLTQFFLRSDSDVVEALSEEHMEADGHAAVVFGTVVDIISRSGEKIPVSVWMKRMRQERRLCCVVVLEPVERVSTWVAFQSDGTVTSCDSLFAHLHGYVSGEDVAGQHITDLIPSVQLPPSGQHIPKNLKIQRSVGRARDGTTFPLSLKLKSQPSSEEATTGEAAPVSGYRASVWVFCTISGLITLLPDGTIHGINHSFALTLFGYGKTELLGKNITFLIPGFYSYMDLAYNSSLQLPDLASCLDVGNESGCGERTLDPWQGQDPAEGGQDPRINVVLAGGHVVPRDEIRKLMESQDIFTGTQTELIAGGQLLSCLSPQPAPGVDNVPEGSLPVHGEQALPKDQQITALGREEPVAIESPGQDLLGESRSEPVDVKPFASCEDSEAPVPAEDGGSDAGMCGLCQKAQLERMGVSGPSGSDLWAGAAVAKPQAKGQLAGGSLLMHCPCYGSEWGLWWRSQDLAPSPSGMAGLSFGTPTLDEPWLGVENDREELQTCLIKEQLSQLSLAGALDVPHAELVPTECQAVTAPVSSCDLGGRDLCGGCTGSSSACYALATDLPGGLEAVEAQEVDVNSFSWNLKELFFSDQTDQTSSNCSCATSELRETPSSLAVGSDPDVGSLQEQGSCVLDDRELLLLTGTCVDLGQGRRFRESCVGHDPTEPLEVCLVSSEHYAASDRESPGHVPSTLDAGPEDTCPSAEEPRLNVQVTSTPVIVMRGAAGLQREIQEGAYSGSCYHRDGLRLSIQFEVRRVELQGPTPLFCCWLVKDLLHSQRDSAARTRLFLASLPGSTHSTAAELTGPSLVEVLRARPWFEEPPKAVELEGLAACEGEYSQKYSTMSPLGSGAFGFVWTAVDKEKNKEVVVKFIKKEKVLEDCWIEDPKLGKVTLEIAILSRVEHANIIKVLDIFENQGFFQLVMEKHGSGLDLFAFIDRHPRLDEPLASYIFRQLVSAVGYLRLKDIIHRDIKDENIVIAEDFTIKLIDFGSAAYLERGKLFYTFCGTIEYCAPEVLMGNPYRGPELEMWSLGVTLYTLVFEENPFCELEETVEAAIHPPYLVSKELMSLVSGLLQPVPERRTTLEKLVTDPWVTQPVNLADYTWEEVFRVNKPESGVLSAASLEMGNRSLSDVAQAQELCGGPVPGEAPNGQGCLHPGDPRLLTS

[3] = target: T1, cAMP-dependent protein kinase catalytic subunit PRKX (Homo sapiens) (UniProt P51817); assay: Inhibition of PRKX (unknown origin) at 10 uM after 120 mins P33 radiolabeled kinase activity assay
T1 sequence (whole entry): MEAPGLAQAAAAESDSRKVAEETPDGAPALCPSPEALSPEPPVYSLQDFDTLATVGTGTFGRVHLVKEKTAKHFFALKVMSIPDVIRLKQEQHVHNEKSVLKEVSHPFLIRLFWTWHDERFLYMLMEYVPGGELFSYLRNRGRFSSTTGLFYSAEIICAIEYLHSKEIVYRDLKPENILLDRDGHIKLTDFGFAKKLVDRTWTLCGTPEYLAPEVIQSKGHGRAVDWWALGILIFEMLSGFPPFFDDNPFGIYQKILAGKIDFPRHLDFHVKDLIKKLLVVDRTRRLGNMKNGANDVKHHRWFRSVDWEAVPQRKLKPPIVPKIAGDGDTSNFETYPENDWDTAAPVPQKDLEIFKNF

[4] = target: Serine/threonine-protein kinase pim-2 (Homo sapiens) (UniProt Q9P1W9); assay: Inhibition of PIM2 (unknown origin) at 10 uM after 120 mins P33 radiolabeled kinase activity assay
[5] = target: Serine/threonine-protein kinase pim-3 (Homo sapiens) (UniProt Q86V86); assay: Inhibition of PIM3 (unknown origin) at 10 uM after 120 mins P33 radiolabeled kinase activity assay
[6] = target: CDK2/Cyclin A1 (Homo sapiens) (UniProt P24941+P78396); assay: Inhibition of CDK2/Cyclin A1 (unknown origin) at 10 uM after 120 mins P33 radiolabeled kinase activity assay; type: protein-complex assay
[7] = target: T2, Serine/threonine-protein kinase Nek2 (Homo sapiens) (UniProt P51955); assay: Inhibition of NEK2 (unknown origin) at 10 uM after 120 mins P33 radiolabeled kinase activity assay
T2 sequence (whole entry): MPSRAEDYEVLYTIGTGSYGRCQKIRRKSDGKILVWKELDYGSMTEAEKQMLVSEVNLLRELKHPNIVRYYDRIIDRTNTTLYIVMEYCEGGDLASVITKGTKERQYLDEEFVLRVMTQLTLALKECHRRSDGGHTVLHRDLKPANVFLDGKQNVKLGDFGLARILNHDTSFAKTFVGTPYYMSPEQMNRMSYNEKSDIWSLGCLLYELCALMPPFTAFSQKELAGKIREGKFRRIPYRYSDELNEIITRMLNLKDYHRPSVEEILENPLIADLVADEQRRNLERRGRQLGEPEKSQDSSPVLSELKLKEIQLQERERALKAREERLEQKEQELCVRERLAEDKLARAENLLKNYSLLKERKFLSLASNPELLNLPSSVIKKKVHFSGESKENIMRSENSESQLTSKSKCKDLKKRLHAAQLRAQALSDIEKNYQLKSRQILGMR

[8] = target: Casein kinase I isoform alpha (Homo sapiens) (UniProt P48729); assay: Inhibition of CK1alpha1 (unknown origin) at 10 uM after 120 mins P33 radiolabeled kinase activity assay
Sequence of Casein kinase I isoform alpha (Homo sapiens) (P48729 2-337 limits assumed): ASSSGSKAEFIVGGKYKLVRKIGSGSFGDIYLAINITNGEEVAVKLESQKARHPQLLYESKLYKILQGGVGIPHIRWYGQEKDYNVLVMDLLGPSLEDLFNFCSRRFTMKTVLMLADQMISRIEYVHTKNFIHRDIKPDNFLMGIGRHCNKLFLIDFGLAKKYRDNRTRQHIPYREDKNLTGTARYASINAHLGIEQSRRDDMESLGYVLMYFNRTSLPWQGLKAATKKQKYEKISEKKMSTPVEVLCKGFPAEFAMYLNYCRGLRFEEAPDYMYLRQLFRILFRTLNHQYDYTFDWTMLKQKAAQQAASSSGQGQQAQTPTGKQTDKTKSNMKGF

[9] = target: T3, Ephrin type-B receptor 4 (Homo sapiens) (UniProt P54760); assay: Inhibition of EPHB4 (unknown origin) at 10 uM after 120 mins P33 radiolabeled kinase activity assay
T3 sequence (whole entry): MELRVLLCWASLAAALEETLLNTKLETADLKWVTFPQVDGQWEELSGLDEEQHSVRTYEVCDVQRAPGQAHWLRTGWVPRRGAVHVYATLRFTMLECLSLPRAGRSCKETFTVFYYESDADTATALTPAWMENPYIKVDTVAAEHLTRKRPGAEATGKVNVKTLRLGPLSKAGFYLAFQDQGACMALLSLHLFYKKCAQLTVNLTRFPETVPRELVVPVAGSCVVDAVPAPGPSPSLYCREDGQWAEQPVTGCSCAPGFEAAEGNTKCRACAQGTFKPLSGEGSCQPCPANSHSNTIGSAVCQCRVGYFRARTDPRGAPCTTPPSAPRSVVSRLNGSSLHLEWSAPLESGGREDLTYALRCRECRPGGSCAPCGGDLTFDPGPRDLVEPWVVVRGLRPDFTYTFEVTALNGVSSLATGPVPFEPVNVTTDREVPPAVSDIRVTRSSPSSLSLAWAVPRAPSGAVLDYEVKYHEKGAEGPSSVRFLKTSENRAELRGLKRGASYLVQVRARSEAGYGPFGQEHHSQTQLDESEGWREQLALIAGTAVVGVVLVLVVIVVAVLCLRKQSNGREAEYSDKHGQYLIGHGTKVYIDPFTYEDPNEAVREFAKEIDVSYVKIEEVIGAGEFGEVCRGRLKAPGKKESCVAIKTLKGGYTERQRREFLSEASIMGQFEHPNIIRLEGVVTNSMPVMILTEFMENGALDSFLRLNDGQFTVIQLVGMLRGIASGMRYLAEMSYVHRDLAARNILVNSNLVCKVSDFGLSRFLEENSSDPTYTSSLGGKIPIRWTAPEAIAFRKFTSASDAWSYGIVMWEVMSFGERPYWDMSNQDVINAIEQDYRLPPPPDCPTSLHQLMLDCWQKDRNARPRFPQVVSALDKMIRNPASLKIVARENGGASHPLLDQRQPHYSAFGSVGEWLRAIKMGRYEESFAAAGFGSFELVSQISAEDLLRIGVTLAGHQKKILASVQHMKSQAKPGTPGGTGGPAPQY

[10] = target: Insulin receptor (Homo sapiens) (UniProt P06213); assay: Inhibition of IR (unknown origin) at 10 uM after 120 mins P33 radiolabeled kinase activity assay
[11] = target: Serine/threonine-protein kinase OSR1 (Homo sapiens) (UniProt O95747); assay: Inhibition of OSR1 (unknown origin) at 10 uM after 120 mins P33 radiolabeled kinase activity assay
Sequence of Serine/threonine-protein kinase OSR1 (Homo sapiens) (O95747 2-527 limits assumed): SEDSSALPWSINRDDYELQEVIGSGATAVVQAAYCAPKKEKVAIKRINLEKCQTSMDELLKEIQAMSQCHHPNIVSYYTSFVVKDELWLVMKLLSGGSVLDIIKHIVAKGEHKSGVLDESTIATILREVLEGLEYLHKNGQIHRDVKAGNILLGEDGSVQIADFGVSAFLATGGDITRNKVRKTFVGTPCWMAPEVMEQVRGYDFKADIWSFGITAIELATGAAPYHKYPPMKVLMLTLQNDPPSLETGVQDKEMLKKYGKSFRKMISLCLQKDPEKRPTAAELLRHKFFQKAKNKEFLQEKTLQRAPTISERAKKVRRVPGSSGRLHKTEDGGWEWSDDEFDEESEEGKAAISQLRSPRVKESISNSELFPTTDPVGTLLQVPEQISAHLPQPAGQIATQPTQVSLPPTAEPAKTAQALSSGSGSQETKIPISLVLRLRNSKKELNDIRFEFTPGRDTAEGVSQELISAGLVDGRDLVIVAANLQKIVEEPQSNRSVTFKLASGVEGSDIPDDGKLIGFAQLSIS

[12] = target: Tyrosine-protein kinase Fer (Homo sapiens) (UniProt P16591); assay: Inhibition of FER (unknown origin) at 10 uM after 120 mins P33 radiolabeled kinase activity assay
Sequence of Tyrosine-protein kinase Fer (Homo sapiens) (P16591 whole entry, looked up, canonical isoform): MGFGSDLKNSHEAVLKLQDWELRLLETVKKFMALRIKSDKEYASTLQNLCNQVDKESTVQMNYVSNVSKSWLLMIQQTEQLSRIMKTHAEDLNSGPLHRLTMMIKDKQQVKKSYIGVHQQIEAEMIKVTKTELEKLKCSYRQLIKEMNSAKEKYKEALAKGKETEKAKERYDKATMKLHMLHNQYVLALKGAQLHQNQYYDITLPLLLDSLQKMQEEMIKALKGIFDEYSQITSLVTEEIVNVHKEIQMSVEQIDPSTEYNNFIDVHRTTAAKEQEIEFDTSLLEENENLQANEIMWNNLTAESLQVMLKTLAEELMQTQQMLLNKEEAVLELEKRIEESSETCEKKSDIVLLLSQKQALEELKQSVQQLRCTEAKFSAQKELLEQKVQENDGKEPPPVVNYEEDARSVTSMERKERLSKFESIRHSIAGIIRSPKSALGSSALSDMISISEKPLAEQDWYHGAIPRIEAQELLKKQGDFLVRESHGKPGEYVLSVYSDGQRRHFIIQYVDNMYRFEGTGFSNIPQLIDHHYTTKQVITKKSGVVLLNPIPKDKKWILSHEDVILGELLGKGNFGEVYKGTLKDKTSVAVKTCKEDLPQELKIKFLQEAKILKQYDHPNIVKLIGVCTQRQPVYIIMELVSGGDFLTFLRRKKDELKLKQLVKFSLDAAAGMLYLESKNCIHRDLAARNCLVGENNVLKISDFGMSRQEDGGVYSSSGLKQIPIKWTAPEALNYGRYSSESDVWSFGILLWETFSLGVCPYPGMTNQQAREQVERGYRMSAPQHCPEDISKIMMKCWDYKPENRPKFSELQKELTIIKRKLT

[13] = target: Phosphorylase b kinase gamma catalytic chain, skeletal muscle/heart isoform (Homo sapiens) (UniProt Q16816); assay: Inhibition of PHKgamma1 (unknown origin) at 10 uM after 120 mins P33 radiolabeled kinase activity assay
Sequence of Phosphorylase b kinase gamma catalytic chain, skeletal muscle/heart isoform (Homo sapiens) (Q16816 whole entry, looked up, the tested form may be a part, canonical isoform): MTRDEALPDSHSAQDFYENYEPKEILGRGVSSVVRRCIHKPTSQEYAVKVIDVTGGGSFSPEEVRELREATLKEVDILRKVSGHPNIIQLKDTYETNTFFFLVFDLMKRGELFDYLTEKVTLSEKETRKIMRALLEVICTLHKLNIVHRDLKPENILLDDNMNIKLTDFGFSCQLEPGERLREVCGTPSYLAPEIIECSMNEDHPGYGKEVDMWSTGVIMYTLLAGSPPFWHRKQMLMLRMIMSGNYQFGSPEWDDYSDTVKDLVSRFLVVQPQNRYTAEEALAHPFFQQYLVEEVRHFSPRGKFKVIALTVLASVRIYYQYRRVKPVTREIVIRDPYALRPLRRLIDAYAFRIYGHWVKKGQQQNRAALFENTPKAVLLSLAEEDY

[14] = target: LIM domain kinase 1 (Homo sapiens) (UniProt P53667); assay: Inhibition of LIMK1 (unknown origin) at 10 uM after 120 mins P33 radiolabeled kinase activity assay
Sequence of LIM domain kinase 1 (Homo sapiens) (P53667 whole entry, looked up, the tested form may be a part): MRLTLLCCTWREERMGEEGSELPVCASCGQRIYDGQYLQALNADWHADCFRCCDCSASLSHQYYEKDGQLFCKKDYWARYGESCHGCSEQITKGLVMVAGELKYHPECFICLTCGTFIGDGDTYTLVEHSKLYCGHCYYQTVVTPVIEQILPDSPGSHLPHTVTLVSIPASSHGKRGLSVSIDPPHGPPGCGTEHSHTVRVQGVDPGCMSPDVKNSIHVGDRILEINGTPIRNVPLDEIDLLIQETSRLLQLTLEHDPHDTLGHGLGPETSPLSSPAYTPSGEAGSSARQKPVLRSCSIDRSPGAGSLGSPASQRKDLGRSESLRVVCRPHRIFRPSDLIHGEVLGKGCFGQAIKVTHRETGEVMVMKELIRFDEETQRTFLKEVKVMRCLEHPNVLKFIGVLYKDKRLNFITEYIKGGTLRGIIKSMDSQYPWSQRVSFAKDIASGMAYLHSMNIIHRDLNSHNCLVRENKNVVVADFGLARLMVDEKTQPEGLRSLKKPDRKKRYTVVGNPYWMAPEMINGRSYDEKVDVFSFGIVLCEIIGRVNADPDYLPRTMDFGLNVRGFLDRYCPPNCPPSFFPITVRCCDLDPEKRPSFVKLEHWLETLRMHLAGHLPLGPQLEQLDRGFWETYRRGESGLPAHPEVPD

Sequence of NT-3 growth factor receptor (Homo sapiens) (Q16288 32-839 limits assumed): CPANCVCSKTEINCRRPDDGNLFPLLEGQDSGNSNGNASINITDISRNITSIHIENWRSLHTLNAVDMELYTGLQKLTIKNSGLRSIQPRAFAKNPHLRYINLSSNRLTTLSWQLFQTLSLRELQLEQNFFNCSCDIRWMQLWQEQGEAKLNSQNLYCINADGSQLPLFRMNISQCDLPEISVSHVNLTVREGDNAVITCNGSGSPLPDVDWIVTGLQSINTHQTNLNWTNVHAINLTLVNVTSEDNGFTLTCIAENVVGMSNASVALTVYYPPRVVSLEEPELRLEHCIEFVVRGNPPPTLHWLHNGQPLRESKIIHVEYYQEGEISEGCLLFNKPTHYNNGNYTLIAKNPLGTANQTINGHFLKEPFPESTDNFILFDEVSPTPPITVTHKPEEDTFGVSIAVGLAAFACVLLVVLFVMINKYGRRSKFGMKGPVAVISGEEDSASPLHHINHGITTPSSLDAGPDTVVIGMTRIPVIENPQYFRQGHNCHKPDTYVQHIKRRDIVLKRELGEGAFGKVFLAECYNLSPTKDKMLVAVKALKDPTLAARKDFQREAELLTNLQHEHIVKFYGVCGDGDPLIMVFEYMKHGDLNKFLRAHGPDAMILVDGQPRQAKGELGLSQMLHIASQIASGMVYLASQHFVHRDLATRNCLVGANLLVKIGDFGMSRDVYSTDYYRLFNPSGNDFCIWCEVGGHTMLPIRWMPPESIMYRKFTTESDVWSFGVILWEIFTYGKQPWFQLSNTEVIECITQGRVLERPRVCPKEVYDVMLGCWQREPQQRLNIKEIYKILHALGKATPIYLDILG

Compound	inhibition [1] [%]	inhibition [2] [%]	inhibition [3] [%]	inhibition [4] [%]	inhibition [5] [%]	inhibition [6] [%]	inhibition [7] [%]	inhibition [8] [%]	inhibition [9] [%]	inhibition [10] [%]	inhibition [11] [%]	inhibition [12] [%]	inhibition [13] [%]	inhibition [14] [%]
COCCNC(=O)c1ccc2c(c1)nc(-c1cnc(-c3ccc(Cl)cc3)[nH]1)n2CCOC	11.8	-2.42	12.7	0.63	3.38	18.1	2.45	46.8	29.3	2.89	3.1	0.68	10.5	8.6
CS(=O)(=O)c1cccc(Nc2nccc(-c3sc(N4CCOCC4)nc3-c3cccc(NS(=O)(=O)c4c(F)cccc4F)c3)n2)c1	84.8	-0.14	18.2	6.09	17.3	43.5	20.5	22.6	93.8	0.58	10.1	65.2	8.44	99.2
CC(C)(C)c1cc(NC(=O)Nc2ccc(Oc3ccncc3)cc2)no1	99.7	10.9	54.2	3.72	69.2	51.4	18.6	19.9	96	21.6	22.6	19.9	55.9	75.6
